# Source: patent publication US7547783B2, “Transition metal complexes” (Shell Oil Company, priority 2004, dated 2009)
# Assay: practical solubility of the transition metal complexes at ambient temperature
# Conditions: not given
# Method: The practical solubility of the transition metal complexes was determined at ambient temperature in the inert atmosphere of the dry box.
# 1 mg of solid complex was contacted with 0.5 ml of benzene-D6 in an NMR-tube (5 mm external diameter) and gently swirled.
Compound,solubility in toluene or benzene-D6,solubility in C6D6 (in words)
"CCCCCCCCCCCCCCCCCCCCOc1c(-c2ccccc2)cc(N=C(C)c2cccc(C(C)=Nc3cc(-c4ccccc4)c(OCCCCCCCCCCCCCCCCCCCC)c(-c4ccccc4)c3)n2)cc1-c1ccccc1.[Cl-].[Cl-].[Cl-].[Cr+3] [Example 9, 2,6-bis[1-(4-eicosanoxy-3,5-diphenylphenylimino)ethyl]pyridine chromium[III] trichloride complex]",ca. 50 mg/ml,–
"CCCCCCCCCCCCCCCCCCCCOc1cc(C)c([N+]2=C(C)c3cccc4[n+]3[Fe]2([Cl])([Cl])[N+](c2cc(C(C)C)c(OCCCCCCCCCCCCCCCCCCCC)cc2C)=C4C)cc1C(C)C [Example 12, 2,6-bis[1-(2-methyl-4-eicosanoxy-5-isopropylphenylimino)ethyl]pyridine iron (II) dichloride]",–,soluble

# Same assay, conditions: 20 °C, organic solvent or mixture, thermodynamic from solid
row,Compound,solubility at 24 h [mg/mL]
1,"CCCOc1c(-c2ccccc2)cc([N+]2=C(C)c3cccc4[n+]3[Co]2([Cl])([Cl])[N+](c2c(C)cc(C)cc2C)=C4C)cc1-c1ccccc1 [Example 13, 2-[1-(2,4,6-trimethylphenylimino)ethyl]-6-[1-(4-propoxy-3,5-diphenylphenylimino)ethyl]pyridine cobalt[II] chloride complex, reference compound]",< 1
2,"CCCCCCCCCCCCCCCCCCCCOc1c(-c2ccccc2)cc([N+]2=C(C)c3cccc4[n+]3[Fe]2([Cl])([Cl])[N+](c2cc(-c3ccccc3)c(OCCCCCCCCCCCCCCCCCCCC)c(-c3ccccc3)c2)=C4C)cc1-c1ccccc1 [Example 7, 2,6-bis[1-(4-eicosanoxy-3,5-diphenylphenylimino)ethyl]pyridine iron [II] dichloride complex]",~100
3,"CCCCCCCCCCCCCCCCCCCCOc1c(-c2ccccc2)cc([N+]2=C(C)c3cccc4[n+]3[Co]2([Cl])([Cl])[N+](c2c(C)cc(C)cc2C)=C4C)cc1-c1ccccc1 [Example 4, 2-[1-(2,4,6-trimethylphenylimino)ethyl]-6-[1-(4-eicosanoxy-3,5-diphenylphenylimino)ethyl]pyridine cobalt[II] dichloride complex]",50
4,"CCCCCCCCCCCCCCCCCCCCOc1ccc([N+]2=C(C)c3cccc4[n+]3[Fe]2([Cl])([Cl])[N+](c2ccc(OCCCCCCCCCCCCCCCCCCCC)cc2C)=C4C)c(C)c1 [Example 11, 2,6-bis[1-(4-eicosanoxy-2-methylphenylimino)ethyl]pyridine iron[II] chloride complex, reference compound]",< 1
5,"CCCCCCCCCCCCCCCCCCCCOc1c(-c2ccccc2)cc([N+]2=C(C)c3cccc4[n+]3[Fe]2([Cl])([Cl])[N+](c2c(C)cc(C)cc2C)=C4C)cc1-c1ccccc1 [Example 3, 2-[1-(2,4,6-trimethylphenylimino)ethyl]-6-[1-(4-eicosanoxy-3,5-diphenylphenylimino)ethyl]pyridine iron[II] dichloride complex]",~50
6,"CCCCCCCCCCCCCCCCCCCCOc1cc(C)c([N+]2=C(C)c3cccc4[n+]3[Fe]2([Cl])([Cl])[N+](c2cc(C(C)C)c(OCCCCCCCCCCCCCCCCCCCC)cc2C)=C4C)cc1C(C)C [Example 12, 2,6-bis[1-(2-methyl-4-eicosanoxy-5-isopropylphenylimino)ethyl]pyridine iron (II) dichloride]",~10
7,"CCCCCCCCCCCCCCCCCCCCOc1c(-c2ccccc2)cc([N+]2=C(C)c3cccc4[n+]3[Co]2([Cl])([Cl])[N+](c2ccccc2C(C)(C)C)=C4C)cc1-c1ccccc1 [Example 10, 2-[1-(2-tert-butylphenylimino)ethyl]-6-[1-(4-eicosanoxy-3,5-diphenylphenylimino)ethyl]pyridine cobalt[II] chloride complex]",~50
8,"CC1=[N+](c2cc(C(C)(C)C)cc(C(C)(C)C)c2)[Fe]2([Cl])([Cl])[N+](c3c(C)cc(C)cc3C)=C(C)c3cccc1[n+]32 [Example 2, 2-[1-(2,4,6-trimethylphenylimino)ethyl]-6-[1-(3,5-di-tert-butylphenylimino)ethyl]pyridine iron[II] chloride complex, reference compound]",< 1
9,"CC1=[N+](c2cc(-c3ccccc3)c(O)c(-c3ccccc3)c2)[Fe]2([Cl])([Cl])[N+](c3c(C)cc(C)cc3C)=C(C)c3cccc1[n+]32 [Example 14, 2-[1-(2,4,6-trimethylphenylimino)ethyl]-6-[1-(4-hydroxy-3,5-diphenylphenylimino)ethyl]pyridine iron (II) dichloride, reference compound]",< 1
10,"CCCCCCCCCCCCCCCCCCCCOc1c(-c2ccccc2)cc([N+]2=C(C)c3cccc4[n+]3[Co]2([Cl])([Cl])[N+](c2cc(-c3ccccc3)c(OCCCCCCCCCCCCCCCCCCCC)c(-c3ccccc3)c2)=C4C)cc1-c1ccccc1 [Example 8, 2,6-bis[1-(4-eicosanoxy-3,5-diphenylphenylimino)ethyl]pyridine cobalt[II] dichloride complex]",~100

# Same assay, conditions: at 20° C.
row,Compound,solubility in toluene or benzene-D6
1,"CCCCCCCCCCCCCCCCCCCCOc1c(-c2ccccc2)cc(N=C(C)c2cccc(C(C)=Nc3c(C)cc(C)cc3C)n2)cc1-c1ccccc1.[Cl-].[Cl-].[Cl-].[Cr+3] [Example 6, 2-[1-(2,4,6-trimethylphenylimino)ethyl]-6-[1-(4-eicosanoxy-3,5-diphenylphenylimino)ethyl]pyridine chromium[III] trichloride complex]",ca. 1 mg/ml
2,"CCCCCCCCCCCCCCCCCCCCOc1c(-c2ccccc2)cc(N=C(C)c2cccc(C(C)=Nc3c(C)cc(C)cc3C)n2)cc1-c1ccccc1.FC(F)(F)c1cc([B-](c2cc(C(F)(F)F)cc(C(F)(F)F)c2)(c2cc(C(F)(F)F)cc(C(F)(F)F)c2)c2cc(C(F)(F)F)cc(C(F)(F)F)c2)cc(C(F)(F)F)c1.[Cl][Co+] [Example 5, 2-[1-(2,4,6-trimethylphenylimino)ethyl]-6-[1-(4-eicosanoxy-3,5-diphenylphenylimino)ethyl]pyridine cobalt[II] chloride tetrakis[3,5-bis[trifluoromethyl)phenyl]borate]",ca. 10 mg/ml
